The results in this text go back to ChEMBL document CHEMBL1131546, “Synthesis and pharmacological evaluation of benzofuran-acetamides as "antineophobic" mitochondrial DBI receptor complex ligands” (Bioorg Med Chem Lett, 1998).

A short description of assay [1]: Binding affinity was determined as the ability to displace [3H]4''CD from the (mDRC) mitochondrial DBI receptor complex using primary cultures of glial cells. The arrangement: species or system Rattus norvegicus.
Assay [2] deals with Rattus norvegicus. Nature of the assay: Tested for antineophobic activity in rats using elevated maze test upon 57 umol/kg peroral administration, expressed as percent of time spent into open arms after 45 min of administration. In kind it is functional.
In assay [3] the test system is Rattus norvegicus. Put plainly: Tested for antineophobic activity in rats using elevated maze test upon 57 umol/kg peroral administration, expressed as number of entries into the open arms after 45 min of administration. In kind it is functional.
Assay [4] is described as follows: Concentration required to stimulate pregnenolone formation in the mitochondria of C6-2B glioma cells. In kind it is functional, Rattus norvegicus.
The test system of assay [5] is Rattus norvegicus. Put plainly: Tested for antineophobic activity in rats using elevated maze test upon 70 umol/kg peroral administration, expressed as percent of time spent into open arms after 45 min of administration. In kind it is functional.
The test system of assay [6] is Rattus norvegicus. Put plainly: Tested for antineophobic activity in rats using elevated maze test upon 70 umol/kg peroral administration, expressed as number of entries into the open arms after 45 min of administration. In kind it is functional.
Assay [7] concerns Rattus norvegicus. Put plainly: Tested for antineophobic activity in rats using elevated maze test upon 53 umol/kg peroral administration, expressed as number of entries into the open arms after 45 min of administration. In kind it is functional.
Assay [8] concerns Rattus norvegicus. Put plainly: Tested for antineophobic activity in rats using elevated maze test upon 53 umol/kg peroral administration, expressed as percent of time spent into open arms after 45 min of administration. In kind it is functional.
The test system of assay [9] is Rattus norvegicus. Put plainly: Tested for antineophobic activity in rats using elevated maze test upon 59 umol/kg peroral administration, expressed as number of entries into the open arms after 45 min of administration. In kind it is functional.
The test system of assay [10] is Rattus norvegicus. Nature of the assay: Tested for antineophobic activity in rats using elevated maze test upon 59 umol/kg po administration, expressed as percent of time spent into open arms after 45 min of administration. In kind it is functional.

As a reminder, the Ki is the equilibrium dissociation constant of an inhibitor or competing ligand from its target. For `CCCCCCN(CCCCCC)C(=O)Cc1c(-c2ccc(I)cc2)oc2ccccc12`, the Ki in assay [1] came out at 0.08 µM.

What is called EC50 is the midpoint of the concentration-response curve. Low readings indicate an effect from little substance, high ones a need for much substance. For `CCCCCCN(CCCCCC)C(=O)Cc1c(-c2ccc(F)cc2)[nH]c2ccccc12`, the Time with Rattus norvegicus [2] is 4.5%. Further, the “No. of openarm entries” value in the assay on Rattus norvegicus [3] is 2.1. The compound further returned a Ki in assay [1] of 0.0044 µM. For the same compound, the EC50 in assay [4] worked out at 0.003 µM.

Regarding `CCCCCCN(CCCCCC)C(=O)Cc1c(-c2ccc(F)cc2)oc2ccccc12`, in the assay with Rattus norvegicus [2], the Time is 5.1%. In addition, the “No. of openarm entries” value in the assay with Rattus norvegicus [3] came to 2.1. This compound also showed a Ki in [1] of 0.008 µM.

As to `CCCCCCN(CCCCCC)C(=O)Cc1c(-c2ccccc2)oc2ccc(Cl)cc12`, in the assay with Rattus norvegicus [5], the Time is 4.7%. The “No. of openarm entries” value with Rattus norvegicus [6] is listed as 2.1. In addition, the Ki in [1] was found to be 0.032 µM.

For `CCCCCCN(CCCCCC)C(=O)Cc1c(-c2ccc(N)cc2)oc2ccccc12`, the Ki in assay [1] came to 0.035 µM. This lies in the double-digit nanomolar range.

With `CCCCCCN(CCCCCC)C(=O)Cc1c(-c2ccc(F)cc2)oc2ccc(Cl)cc12`, the “No. of openarm entries” value in the assay with Rattus norvegicus [7] turned out to be 2.3. This compound also showed a Time with Rattus norvegicus [8] of 4.7%. This compound also showed a Ki in assay [1] of 0.032 µM.

In turn, `CCCCCCN(CCCCCC)C(=O)Cc1c(-c2ccccc2)oc2ccccc12` displayed a Ki in [1] of 0.014 µM. Further, the “No. of openarm entries” value in the assay with Rattus norvegicus [9] was 2.6. Also, the Time in the assay on Rattus norvegicus [10] was determined as 4.5%.
